In brackets after ≈: the same amount, converted by molar mass.
How the values were obtained:
Rattus norvegicus = species on record: Rattus norvegicus; test: Unbound clearance in Sprague-Dawley rat at 5 ug/ml by equilibrium dialysis method; type: ADME, organism-based; conditions: in vivo
[1] = Oral bioavailability in Sprague-Dawley rat at 2 mg/kg; type: ADME, organism-based; conditions: in vivo
[2] = Half life in Sprague-Dawley rat; type: ADME, organism-based; conditions: in vivo
[3] = Clearance in Sprague-Dawley rat at 0.25 mg/kg, iv; type: ADME, organism-based; conditions: in vivo
[4] = Fraction unbound in Sprague-Dawley rat plasma at 5 ug/ml by equilibrium dialysis method; type: ADME, cell-free
[5] = Fraction unbound in mouse plasma at 5 ug/ml by equilibrium dialysis method; type: ADME, cell-free
[6] = Fraction unbound in human plasma at 5 ug/ml by equilibrium dialysis method; type: ADME, cell-free
[7] = Volume of distribution at steady state in Sprague-Dawley rat; type: ADME, organism-based; conditions: in vivo, read-out: Vdss
[8] = Intrinsic clearance in rat liver microsomes; type: ADME; conditions: read-out: CLH
[9] = Intrinsic clearance in mouse liver microsomes; type: ADME; conditions: read-out: CLH
[10] = Intrinsic clearance in human liver microsomes; type: ADME; conditions: read-out: CLH
Mus musculus [11] = test: In vivo inhibition of HGF-induced phosphorylation of MET in Balb/c mouse liver assessed as phosphorylated cMET level at 10 mg/kg administered via oral gavage followed by HGF injection 24 hrs post dose by electrochemiluminescence immunoassay relative to control; type: functional; design: scale not given: the % may be the effect or the level left
Cytochrome P450 3A4 [12] = molecular target: T1, Cytochrome P450 3A4 (Homo sapiens, UniProt P08684); test: (§1) Inhibition of CYP3A4 (unknown origin) in presence of NADPH; type: ADME
Cytochrome P450 3A4 [13] = molecular target: T1, Cytochrome P450 3A4; test: Inhibition of CYP3A4 (unknown origin) in absence of NADPH; type: ADME
Mus musculus [14] = test: In vivo inhibition of HGF-induced phosphorylation of MET in Balb/c mouse liver assessed as phosphorylated cMET level at 10 mg/kg administered via oral gavage followed by HGF injection 1 hr post dose by electrochemiluminescence immunoassay relative to control; type: functional; design: scale not given: the % may be the effect or the level left
Mus musculus [15] = test: In vivo inhibition of HGF-induced phosphorylation of MET in Balb/c mouse liver assessed as phosphorylated cMET level at 10 mg/kg administered via oral gavage followed by HGF injection 3 hrs post dose by electrochemiluminescence immunoassay relative to control; type: functional; design: scale not given: the % may be the effect or the level left
Mus musculus [16] = test: In vivo inhibition of HGF-induced phosphorylation of MET in Balb/c mouse liver assessed as phosphorylated cMET level at 10 mg/kg administered via oral gavage followed by HGF injection 6 hrs post dose by electrochemiluminescence immunoassay relative to control; type: functional; design: scale not given: the % may be the effect or the level left
Mus musculus [17] = test: In vivo inhibition of HGF-induced phosphorylation of MET in Balb/c mouse liver assessed as phosphorylated cMET level at 10 mg/kg administered via oral gavage followed by HGF injection 9 hrs post dose by electrochemiluminescence immunoassay relative to control; type: functional; design: scale not given: the % may be the effect or the level left
Mus musculus [18] = test: In vivo inhibition of HGF-induced phosphorylation of MET in Balb/c mouse liver assessed as phosphorylated cMET level at 10 mg/kg administered via oral gavage followed by HGF injection 12 hrs post dose by electrochemiluminescence immunoassay relative to control; type: functional; design: scale not given: the % may be the effect or the level left
Plasma [19] = test: Unbound plasma concentration in mouse at 10 mg/kg, po measured at 9 hrs; type: ADME, organism-based; conditions: in vivo
[20] = Clearance in Beagle dog at 0.713 mg/kg, iv; type: ADME, organism-based, Canis lupus familiaris; conditions: in vivo
Canis familiaris = species on record: Canis familiaris; test: Unbound clearance in Beagle dog at 5 ug/ml by equilibrium dialysis method; type: ADME, organism-based, Canis lupus familiaris; conditions: in vivo
[21] = Volume of distribution at steady state in iv dosed Beagle dog; type: ADME, organism-based, Canis lupus familiaris; conditions: in vivo, read-out: Vdss
[22] = Half life in iv dosed Beagle dog; type: ADME, organism-based, Canis lupus familiaris; conditions: in vivo
[23] = AUC(0 to infinity) in Beagle dog at 10 mg/kg,po; type: ADME, organism-based, Canis lupus familiaris; design: dose 10 mg/kg, route oral, time infinity; conditions: in vivo
[24] = Oral bioavailability in Beagle dog at 10 mg/kg; type: ADME, organism-based, Canis lupus familiaris; conditions: in vivo
[25] = AUC(0 to infinity) in Beagle dog at 30 mg/kg, po; type: ADME, organism-based, Canis lupus familiaris; design: dose 30 mg/kg, time infinity, route oral; conditions: in vivo
[26] = (§2) Antitumor activity against mouse NIH-3T3/TPR-Met cells xenografted in CD1 mouse assessed as tumor growth inhibition administered as oral gavage, qd over 22 days; type: functional; conditions: NIH3T3, po, 528 h
Mus musculus [27] = test: as §2; type: functional
Mus musculus [28] = test: Toxicity in CD1 mouse xenografted with mouse NIH-3T3/TPR-Met cells assessed as effect on body weight at 0.1 to 10 mg/kg, qd administered as oral gavage over 22 days; type: organism-based; conditions: in vivo, 528 h
[29] = Oral bioavailability in Beagle dog at 30 mg/kg; type: ADME, organism-based, Canis lupus familiaris; conditions: in vivo
[30] = Solubility of compound in 0.01 N HCl; type: physicochemical
[31] = Solubility of compound in PBS; type: physicochemical
[32] = Solubility of compound in SIF; type: physicochemical
[33] = Clearance in Sprague-Dawley rat at 0.3 mg/kg, iv; type: ADME, organism-based; conditions: in vivo
Mus musculus [34] = test: In vivo inhibition of HGF-induced phosphorylation of MET in Balb/c mouse liver assessed as time required for >90% inhibition at 30 mg/kg administered via oral gavage; type: functional
Plasma [35] = test: Unbound plasma concentration in Balb/c mouse at 30 mg/kg, administered via oral gavage measured at 6 hrs; type: ADME, organism-based; conditions: in vivo
[36] = molecular target: Hepatocyte growth factor receptor (Homo sapiens, UniProt P08581)
Description: Inhibition of HGF-mediated MET autophosphorylation in human PC3 cells preincubated for 1 hr followed by stimulation with human HGF measured after 10 mins by electrochemiluminescence immunoassay

Mus musculus [37] = test: In vivo inhibition of HGF-induced phosphorylation of MET in Balb/c mouse liver assessed as time required for >90% inhibition at 10 mg/kg administered via oral gavage; type: functional
Plasma [38] = test: Unbound plasma concentration in Balb/c mouse at 10 mg/kg, administered via oral gavage measured at 12 hrs; type: ADME, organism-based; conditions: in vivo
[39] = Clearance in Beagle dog at 0.425 mg/kg, iv; type: ADME, organism-based, Canis lupus familiaris; conditions: in vivo
Plasma [40] = test: Unbound plasma concentration in Balb/c mouse at 10 mg/kg, administered via oral gavage measured at 6 hrs; type: ADME, organism-based; conditions: in vivo
CYP3A4 = CYP3A4 (Homo sapiens, UniProt P08684); test: as §1; type: ADME

SMILES	CL free (Rattus norvegicus)	bioavailability [1]	half-life [2]	clearance [3]	fraction unbound at 5 ug/ml [4]	fraction unbound at 5 ug/ml [5]	fraction unbound at 5 ug/ml [6]	Vd [7]	microsomal CLint [8]	microsomal CLint [9]	microsomal CLint [10]	Activity (Mus musculus [11])	Activity (Mus musculus [14])	Activity (Mus musculus [15])	Activity (Mus musculus [16])	Activity (Mus musculus [17])	Activity (Mus musculus [18])	solubility [31]	further results
COc1cnc2ccn([C@H](C)c3nnc4c(F)cc(-c5cnn(C)c5)cn34)c(=O)c2c1	15 mL/min/kg	43%	3.6 h	2 mL/min/kg	0.139	0.353	0.309	0.5 L/kg	12 µL/min/mg	7 µL/min/mg	< 5 µL/min/mg	–	–	–	–	–	–	–	–
Cc1cc(-c2cc(F)c3nnc([C@@H](C)n4ccc5ncccc5c4=O)n3c2)on1	31.7 mL/min/kg	44%	0.8 h	6.33 mL/min/kg	0.196	0.245	0.32	0.4 L/kg	8 µL/min/mg	< 5 µL/min/mg	14 µL/min/mg	12%	100%	101%	98%	91%	40%	–	TDI (Cytochrome P450 3A4 [12]; human): Not Active; TDI (Cytochrome P450 3A4 [13]; human): Not Active; Cp(f) (Plasma [19]): 193 nM
COCCOc1cnc2ccn([C@H](C)c3nnc4c(F)cc(-c5cnn(C)c5)cn34)c(=O)c2c1 [AMG-337]	26.7 mL/min/kg	30%	3 h	4.5 mL/min/kg	0.174	0.366	0.419	0.9 L/kg	6 µL/min/mg	8 µL/min/mg	9 µL/min/mg	51%	101%	98%	98%	92%	92%	–	clearance [20]: 3.83 mL/min/kg; CL free (Canis familiaris): 7.67 mL/min/kg; Vd [21]: 1.1 L/kg; half-life [22]: 5.9 h; AUC(0-inf) [23]: 21000 ng·h/mL; bioavailability [24]: 49%; AUC(0-inf) [25]: 82600 ng·h/mL; ED50 [26]: 0.3 mg/kg; ED90 [26]: 0.8 mg/kg; Activity (Mus musculus [27]): Dose-dependent effect; Activity (Mus musculus [28]): Non-toxic; bioavailability [29]: 64%
COc1ccc2c(OCc3nnc4ccc(-c5cc(F)c(F)c(F)c5)nn34)ccnc2c1	967 mL/min/kg	–	3.5 h	–	–	–	–	–	–	–	–	–	–	–	–	–	–	4 µg/mL (≈ 9.15 µM)	solubility [30]: 85 µg/mL (≈ 194 µM); solubility [32]: 17 µg/mL (≈ 38.9 µM); clearance [33]: 1 mL/min/kg; Time (Mus musculus [34]): 6 h; Cp(f) (Plasma [35]): 34 nM; IC50 [36]: 0.008 µM
COCCOc1cnc2ccc([C@H](C)n3nnc4ccn(-c5cc(C)ns5)c(=O)c43)cc2c1	517 mL/min/kg	–	3.4 h	–	–	–	–	–	–	–	–	–	–	–	–	–	–	9 µg/mL (≈ 19.5 µM)	IC50 (Cytochrome P450 3A4 [12]): 21 µM; IC50 (Cytochrome P450 3A4 [13]): 21 µM; Time (Mus musculus [37]): 12 h; Cp(f) (Plasma [38]): 20 nM
C[C@H](c1nnc2c(F)cc(-c3cnn(C)c3)cn12)n1ccc2ncccc2c1=O	17 mL/min/kg	31%	4 h	4.67 mL/min/kg	0.271	0.376	0.478	0.7 L/kg	8 µL/min/mg	< 5 µL/min/mg	< 5 µL/min/mg	–	–	–	–	–	–	–	–
COCCOc1cnc2ccn([C@H](C)c3nnc4ccc(-c5cc(C)no5)cn34)c(=O)c2c1	25 mL/min/kg	59%	2.4 h	4.83 mL/min/kg	0.19	0.435	0.338	1 L/kg	9 µL/min/mg	23 µL/min/mg	7 µL/min/mg	50%	109%	109%	108%	108%	95%	–	clearance [39]: 5 mL/min/kg; CL free (Canis familiaris): 11.3 mL/min/kg; Vd [21]: 1.4 L/kg; half-life [22]: 4.3 h; AUC(0-inf) [23]: 19300 ng·h/mL; bioavailability [24]: 53%; AUC(0-inf) [25]: 94100 ng·h/mL; bioavailability [29]: 87%
COCCOc1cnc2ccc([C@H](C)c3nnc4c(F)cc(-c5cc(C)no5)cn34)cc2c1	433 mL/min/kg	–	4.2 h	–	–	–	–	–	–	–	–	–	–	–	–	–	–	52 µg/mL (≈ 116 µM)	solubility [30]: > 200 µg/mL; solubility [32]: 126 µg/mL (≈ 282 µM); IC50 (Cytochrome P450 3A4 [12]): > 50 µM; IC50 (Cytochrome P450 3A4 [13]): > 50 µM; Time (Mus musculus [37]): 6 h; Cp(f) (Plasma [40]): 141 nM
COc1cnc2c(NCc3nnc4ccc(-c5cc(C)ns5)nn34)ccnc2c1	433 mL/min/kg	–	1.8 h	3.17 mL/min/kg	–	–	–	–	–	–	–	–	–	–	–	–	–	3 µg/mL (≈ 7.42 µM)	solubility [30]: > 200 µg/mL; solubility [32]: 13 µg/mL (≈ 32.1 µM); IC50 (CYP3A4): > 50 µM; Time (Mus musculus [34]): 6 h; Cp(f) (Plasma [35]): 9 nM
COc1cnc2ccn([C@H](C)c3nnc4ccc(-c5cnn(C)c5)cn34)c(=O)c2c1	53.3 mL/min/kg	36%	1.7 h	10.8 mL/min/kg	0.206	0.409	0.286	1.2 L/kg	9 µL/min/mg	7 µL/min/mg	< 5 µL/min/mg	–	–	–	–	–	–	–	–
COCCOc1cnc2ccn([C@H](C)c3nnc4c(F)cc(-c5cc(C)no5)cn34)c(=O)c2c1	40 mL/min/kg	54%	2.9 h	3.33 mL/min/kg	0.08	0.317	0.409	0.7 L/kg	16 µL/min/mg	14 µL/min/mg	20 µL/min/mg	28%	101%	100%	99%	99%	51%	–	–
COc1cnc2ccn([C@H](C)c3nnc4c(F)cc(-c5cc(C)no5)cn34)c(=O)c2c1	–	31%	1.1 h	7.67 mL/min/kg	–	–	–	0.5 L/kg	–	–	–	–	–	–	–	–	–	–	–
COCCOc1cnc2ccn([C@H](C)c3nnc4ccc(-c5cnn(C)c5)cn34)c(=O)c2c1	40 mL/min/kg	25%	1.8 h	11.7 mL/min/kg	0.296	0.424	0.498	1.3 L/kg	< 5 µL/min/mg	7 µL/min/mg	8 µL/min/mg	–	–	–	–	–	–	–	–

Source: ChEMBL document CHEMBL3784965, “Discovery of (R)-6-(1-(8-Fluoro-6-(1-methyl-1H-pyrazol-4-yl)-[1,2,4]triazolo[4,3-a]pyridin-3-yl)ethyl)-3-(2-methoxyethoxy)-1,6-naphthyridin-5(6H)-one (AMG 337), a Potent and Selective Inhibitor of MET with High Unbound Target Coverage and Robust In Vivo Antitumor Activity” (J Med Chem, 2016)
